In publication PMC7948422, “Repurposing p97 inhibitors for chemical modulation of the bacterial ClpB–DnaK bichaperone system” (The Journal of Biological Chemistry, 2020):
“And” between values parts separate entries of the source, which are not always exact repeats. Identical values can stand only once. “Also recorded” adds a separate entry of the source.

How the values were obtained:
[1] = molecular target: T1, wt ClpB (Escherichia coli, UniProt P63284); test: Surface plasmon resonance, immobilized wt ClpB; type: binding
T1 construct: made in house
T1 sequence (P63284 whole entry): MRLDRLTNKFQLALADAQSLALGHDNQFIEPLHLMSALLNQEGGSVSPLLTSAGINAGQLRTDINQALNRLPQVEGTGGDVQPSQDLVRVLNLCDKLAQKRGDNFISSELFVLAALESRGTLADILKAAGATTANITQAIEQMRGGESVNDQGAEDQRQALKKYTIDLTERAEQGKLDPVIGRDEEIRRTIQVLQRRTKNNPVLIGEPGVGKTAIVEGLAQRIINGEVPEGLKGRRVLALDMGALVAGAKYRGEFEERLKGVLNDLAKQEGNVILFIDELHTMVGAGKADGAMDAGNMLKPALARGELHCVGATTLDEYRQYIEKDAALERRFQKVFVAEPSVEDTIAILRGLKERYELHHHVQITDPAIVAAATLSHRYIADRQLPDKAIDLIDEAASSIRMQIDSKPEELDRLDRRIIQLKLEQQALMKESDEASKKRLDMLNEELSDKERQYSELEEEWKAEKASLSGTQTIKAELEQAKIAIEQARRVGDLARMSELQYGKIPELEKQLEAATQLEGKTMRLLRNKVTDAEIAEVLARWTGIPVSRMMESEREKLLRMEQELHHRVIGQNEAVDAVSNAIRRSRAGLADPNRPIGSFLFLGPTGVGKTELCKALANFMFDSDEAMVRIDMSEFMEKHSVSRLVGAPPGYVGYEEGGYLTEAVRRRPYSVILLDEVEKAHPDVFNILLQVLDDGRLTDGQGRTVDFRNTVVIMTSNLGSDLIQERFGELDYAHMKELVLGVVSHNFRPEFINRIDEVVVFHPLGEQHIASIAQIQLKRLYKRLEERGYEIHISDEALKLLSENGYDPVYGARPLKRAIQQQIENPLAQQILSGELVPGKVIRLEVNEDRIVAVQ
Experimental: (§1) ClpB, DnaK, and the NBD of DnaK were extensively dialyzed against the SPR buffer (20-mM Hepes, pH 7.4, 150-mM NaCl, 20-mM MgCl2, 1-mM EDTA, 1-mM DTT). After dialysis, the protein concentration was determined by the Bradford method. The DBeQ–protein interactions were studied using a Biacore T200 instrument (GE Healthcare) at 25 °C. The proteins were diluted to 300 μg/ml in 10-mM sodium acetate buffer (pH 5 for ClpB DnaK or pH 4 for NBD) and immobilized on HC1500M sensor chips (Xantec) by standard amine coupling chemistry as described previously ([70]). A reference flow cell was created by ethyl(dimethylaminopropyl) carbodiimide/N-hydroxysuccinimide activation followed by quenching with 1 M ethanolamine (pH 9.0). Solvent correction curves were obtained at the beginning and end and after every 50 injection cycles by injecting varying DMSO concentrations (4.0, 4.4, 4.6, 4.8, 5.0, 5.2, 5.4, and 5.9% [v/v]). All experiments were performed using a flow rate of 30 μl/min.
Binding isotherms were obtained with the ligand diluted to different concentrations in the SPR running buffer HBSMTD (20-mM Hepes, pH 7.4, 140-mM NaCl, 20-mM MgCl2, 5% (v/v) DMSO, 0.005% (v/v) Tween-20). Replicate injections were performed for all samples, and a buffer-only injection was performed for every 12 injection cycles. To test the structural integrity of ClpB after immobilization on the sensor chips, we performed control titrations with ATPγS and adenosine. The dissociation constants determined from those experiments were ∼20 μM for ATPγS and ∼2 mM for adenosine. […] Moreover, the immobilized ClpB discriminated between a nucleotide analog and a nucleoside, which indicated an adequate structural integrity of ClpB on the sensor chips.
The resulting sensorgrams were analyzed using Biacore T200 Evaluation Software v3.0 according to the following procedure. Solvent correction curves were generated and applied to all data sets, and all sensorgrams were double-referenced by subtracting the most recent buffer blank injection. The signal immediately before injection stop of these corrected sensorgrams was treated as the binding response. GraphPad Prism was used for nonlinear least-squares fitting of the model assuming either noncooperative or cooperative binding of DBeQ to DnaK and ClpB, respectively.

[2] = molecular target: T2, DnaK (Escherichia coli, UniProt P0A6Y8); test: Surface plasmon resonance, immobilized DnaK; type: binding
T2 construct: full-length E. coli DnaK (residues 1–638); made in house; host or cells: E. coli BL21(DE3)
T2 sequence (P0A6Y8 whole entry, the tested form may be a part): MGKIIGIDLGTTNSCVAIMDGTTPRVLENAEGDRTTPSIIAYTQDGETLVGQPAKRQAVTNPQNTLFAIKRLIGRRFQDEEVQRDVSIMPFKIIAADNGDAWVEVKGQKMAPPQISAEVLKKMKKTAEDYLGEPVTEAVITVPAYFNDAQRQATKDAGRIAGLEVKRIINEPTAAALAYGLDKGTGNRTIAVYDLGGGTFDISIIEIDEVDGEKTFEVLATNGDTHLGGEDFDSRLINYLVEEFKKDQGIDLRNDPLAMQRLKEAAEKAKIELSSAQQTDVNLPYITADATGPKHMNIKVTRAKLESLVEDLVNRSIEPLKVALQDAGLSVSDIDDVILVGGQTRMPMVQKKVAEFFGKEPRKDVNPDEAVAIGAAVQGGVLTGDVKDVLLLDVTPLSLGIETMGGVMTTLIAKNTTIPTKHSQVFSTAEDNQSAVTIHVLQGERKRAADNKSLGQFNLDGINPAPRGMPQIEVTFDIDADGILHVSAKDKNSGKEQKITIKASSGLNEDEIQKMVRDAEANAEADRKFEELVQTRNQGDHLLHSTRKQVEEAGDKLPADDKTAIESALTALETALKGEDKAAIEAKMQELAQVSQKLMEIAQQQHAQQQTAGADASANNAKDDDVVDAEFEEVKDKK
Experimental: as §1, with “All experiments were performed using a flow rate of 30 μl/min.” left out
Binding isotherms were obtained with the ligand diluted to different concentrations in the SPR running buffer HBSMTD (20-mM Hepes, pH 7.4, 140-mM NaCl, 20-mM MgCl2, 5% (v/v) DMSO, 0.005% (v/v) Tween-20). […] The dissociation constants determined from those experiments were ∼20 μM for ATPγS and ∼2 mM for adenosine. […]
The resulting sensorgrams were analyzed using Biacore T200 Evaluation Software v3.0 according to the following procedure. […]

[3] = molecular target: T2, DnaK; test: DnaK ATPase activity assay; type: biochemical; settings: 100 µM DBeQ, 37 °C
Experimental: To determine the ATPase activity of DnaK, 18 μl of DnaK solution or DnaK NBD solution prepared in buffer C was mixed with 1 μl of the investigated compounds or DMSO as a control. Samples without DnaK were used as control blanks. The samples were preincubated for 10 min at 37 °C. The reaction was initiated by adding 1 μl of 100-mM ATP bringing the final concentration of DnaK to 1.1 μM or DnaK NBD to 3.4 μM. The samples were incubated at 37 °C for 70 min for DnaK or 75 min for NBD. The concentration of inorganic phosphate produced from ATP in the presence of DnaK was determined as described above for ClpB.

[4] = Solubility of DBeQ in aqueous buffer (absorbance/turbidity); type: physicochemical; settings: aqueous ATPase assay buffer, 1% DMSO
Experimental: Supplementary Figure 3. Solubility of DBeQ in aqueous solution. Solutions of DBeQ
were prepared in the ATPase assay buffer containing 1% DMSO. (A) DBeQ absorbance at
320 nm (blue) and solution turbidity at 400 nm (red) for increasing DBeQ concentrations. (B)
UV absorption spectrum of 100 μM DBeQ.
Supplementary Figure 4. The ATP-binding modules (D1 and D2) separated with the
middle domain (MD) in E. coli ClpB (PDB entry: 5OG1). Trp462 (red), Trp543 (magenta),
and the ATP-analog, ATPγS (dark blue) bound in D1 and D2 are shown with a “stick”
representation. Image generated using PyMOL 1.3 (Schrödinger LLC, www.pymol.com). […]

[5] = set-up: method as in PMID 21383145; settings: cited from earlier work
[6] = test system: p97; set-up: method as in PMID 25685910; settings: cited from earlier work

c1ccc(CNc2nc(NCc3ccccc3)c3ccccc3n2)cc1 [DBeQ, N^2,N^4-dibenzylquinazoline-2,4-diamine]
Bmax (SPR signal at saturation), ClpB [1]: 1.09 ± 0.02 | Hill coefficient, DBeQ binding to ClpB ([1]; SPR, cooperative binding model): 2.3 ± 0.3 and ~2.3 and > 2 | Kd ([1]; apparent Kd, DBeQ binding to ClpB, SPR, 25 °C, cooperative binding model): 64.4 µM and ~60 µM | Bmax (SPR signal at saturation), DnaK [2]: 2.07 ± 0.20 | Kd ([2]; apparent Kd, DBeQ binding to DnaK, SPR, non-cooperative model, approximate, close to ligand solubility limit): 105 µM and ~100 µM | effect on DnaK ATPase activity [3]: did not detect inhibition; also recorded: did not affect | DBeQ concentrations obeying Beer–Lambert law without significant turbidity increase [4]: up to 100 μM | solubility in aqueous buffers [5]: limited | IC50 [6]: ~3 µM
